Measured values from patent publication US20260138981A1, “DIHYDROFOLATE REDUCTASE INHIBITORS FOR ANTI-BIOTIC RESISTANT INFECTIONS” (THE TRUSTEES OF PRINCETON UNIVERSITY, priority 2022, published 2026).

Tests used:
[1] = tested on: PBMC; type: cell-based; conditions: 72 h
Description: FIG. 5D provides IC50 of fluorofolin against in vitro mammalian cell lines relative to the IC50 of IRS-16. HLF: human lung fibroblast, HK-2: human kidney epithelial, PBMC: peripheral blood mononuclear cell, WI-38: Embryonic lung tissue.
After 24 hours, DMSO or compounds were added in 3-fold dilutions and incubated for 72 hours. For PBMC, CellTiter-Glo Reagent was added in equal volume and incubated for 30 min after which luminescence was read. For other cell types, CyQUANT Detection Reagent was added in equal volume and incubated for 1 hour after which fluorescence was read with standard green filter set (508/527 nm ex). Cell toxicity was evaluated by Pharmaron, Inc. (Beijing, […]).

[2] = tested on: P. aeruginosa PA14; assay: Drug accumulation assay (intrabacterial drug metabolism, LC/MS); type: cell-based; conditions: PA14, 5 μM, compared with TMP
Description: FIG. 1G provides intrabacterial drug metabolism (IBDM) of PA14 treated with 5 μM fluorofolin or trimethoprim. Samples were taken at time t=0, 30, 60, and 90 minutes. Data represent mean±SD of triplicate technical replicates.
FIG. 1H provides cumulative accumulation of drugs over 90 mins by AUC of IBDM curves. Data represent mean±SD of triplicate technical replicates. (P value≤0.0001) t-test using Prism 9.
Overnight PA14 cultures were back-diluted to early-mid exponential phase (OD600=0.4-0.6). The assay was initiated with treatment of the culture with either 5.0 μM fluorofolin or 5.0 μM trimethoprim. A DMSO treated culture was utilized as a control. […] The resulting cell lysate samples were analyzed utilizing verapamil as an internal standard. […]
Compound accumulation was realized using the selective ion monitoring (SIM) mode to quantify peak integration for a compound and the internal standard using their respective m/z values. Compound peaks were confirmed using a scanning mode that detected the compound peak using an m/z range of 100-1000. Peak area integration values were determined and a ratio of the peak area for the compound to the peak area for the verapamil internal standard was calculated and compound concentration was then determined from the compound calibration curve. […]

[3] = tested on: E. coli NCM-3722; assay: MIC in LB Broth; type: cell-based; conditions: Escherichia coli, NCM3722, 16 hours at 37° C. in LB Broth, OD600
Description: (§1) The minimum inhibitory concentration is defined as the lowest concentration of antibiotic at which no visible growth was detected after 16 hours at 37° C. Overnight cultures were diluted 1:150 in LB Broth and added to a 96-well plate. Antibiotics were serially diluted 1:2 and added to columns of the 96-well plate and grown at 37° C. with continuous shaking. Cell growth was measured by optical density (OD600). MIC assays were performed in either BioTek Synergy HT (Winooski, VT) or Tecan InfiniteM200 Pro (Männedorf, CH) microplate readers.

[4] = tested on: E. coli MG1655; assay: MIC in LB Broth; type: cell-based; conditions: Escherichia coli, 16 hours at 37° C. in LB Broth, OD600
Description: as §1

[5] = tested on: P. aeruginosa PA01; assay: MIC in LB Broth; type: cell-based; conditions: Pseudomonas aeruginosa, 16 hours at 37° C. in LB Broth, OD600
Description: as §1

[6] = tested on: P. aeruginosa PA14; assay: MIC in LB Broth; type: cell-based; conditions: Pseudomonas aeruginosa
Description: as §1

[7] = tested on: E. cloacae ATCC BAA-1143; assay: MIC in LB Broth; type: cell-based; conditions: Enterobacter cloacae, ATCCBAA1143, 16 hours at 37° C. in LB Broth, OD600
Description: as §1

[8] = tested on: K. pneumoniae ATCC 438165; assay: MIC in LB Broth; type: cell-based; conditions: Klebsiella pneumoniae, ATCC438165, 16 hours at 37° C. in LB Broth, OD600
Description: as §1

[9] = tested on: S. epidermidis EGM-206; assay: MIC in LB Broth; type: cell-based; conditions: Staphylococcus epidermidis, EGM206, 16 hours at 37° C. in LB Broth, OD600
Description: as §1

[10] = tested on: E. coli lptD4213; assay: MIC in LB Broth; type: cell-based; conditions: Escherichia coli, LPTD4213, 16 h
Description: as §1

[11] = tested on: S. aureus USA300; assay: MIC in LB Broth; type: cell-based; conditions: Staphylococcus aureus, 16 hours at 37° C. in LB Broth, OD600
Description: as §1

[12] = tested on: P. aeruginosa ATTC 27853; assay: MIC in LB Broth; type: cell-based; conditions: Pseudomonas aeruginosa, ATTC27853, 16 hours at 37° C. in LB Broth, OD600
Description: as §1

[13] = Pharmacokinetic analysis after single oral dose; type: in vivo, mouse; conditions: single dose 200 mg/kg PO, CD-1 mice
Description: FIG. 2A quantifies plasma concentration of fluorofolin over time after single oral administration to neutropenic CD1 mice. Each line is representative of an individual mouse.
Pharmacokinetics determination: Care and handling of male CD-1 mice approximately 6-8 weeks old conformed to institutional animal care and use policies as carried out at Pharmaron, Inc. (Beijing, ROC).
Pharmacokinetic properties were determined after a single dose of 200 mg/kg fluorofolin given PO. Plasma samples were taken from three mice at times 0.083, 0.25, 0.5, 1, 2, 4, 8, and 24 hours and quantitative analysis was performed using LC/MS/MS. Half-life was determined from plasma concentration after fluorofolin levels reached pseudo-equilibrium (4 hours for mouse 1 and 2, and 2 hours for mouse 3). Pharmacokinetic values were estimated using a non-compartmental model generated from WinNonlin 6.1. Pharmacokinetic analysis was carried out by Pharmaron, Inc. (Beijing, ROC).

With `Nc1nc(N)c2c(ccc3c2ccn3Cc2ccnc(F)c2)n1` [fluorofolin] the “increase in IC50 compared to IRS-16” value [1] was 9.6 fold, the “rate of accumulation in P. aeruginosa” value ([2]; 0-90 min) was “more rapidly” and the “cumulative accumulation (AUC of IBDM curves)” value ([2]; over 90 mins) was “higher levels”. The MIC [3] was 0.312 mg/L, the MIC [4] was 0.625 mg/L and the MIC [5] was 6.25 mg/L. It also gave an MIC ([6]; P. aeruginosa PA14, compound alone) of 3.1 mg/L, an MIC ([6]; P. aeruginosa PA14, 16 hours at 37° C. in LB Broth, OD600) of 3.12 mg/L and an MIC [7] of 12.5 mg/L. For the same molecule, the MIC [8] was 6.25 mg/L, the MIC [9] was 0.312 mg/L and the MIC [10] was 0.02 mg/L. For the same molecule, the MIC [11] was 0.4 mg/L, the MIC [12] was 25 mg/L and the half-life [13] was 12.1 h. The “peak concentration (plasma)” value [13] was 4.0 µg/mL.
